Results published in patent US20220162191A1, “SMALL MOLECULE MODULATORS OF IL-17” (LEO PHARMA A/S, priority 2019, published 2022).

Each compound was assayed against T1, human IL-17AA (Homo sapiens, UniProt Q16552) (assay: IL-8 release assay in human epithelial keratinocytes adult (HEKa)). Conditions: 3 ng/ml human IL-17AA + 10 ng/ml human TNFalpha, 68-72 h, IL-8 by HTRF, read-out: Rel EC50 L-8 release assay.
T1 construct: host or cells: HEK (human embryonic kidney) cells
T1 sequence (Q16552 24-155) 1: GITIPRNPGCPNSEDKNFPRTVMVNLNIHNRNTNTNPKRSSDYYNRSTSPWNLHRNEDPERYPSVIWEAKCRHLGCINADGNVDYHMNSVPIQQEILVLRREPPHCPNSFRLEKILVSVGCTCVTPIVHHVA
T1 sequence (Q16552 24-155) 2: T1 sequence (Q16552 24-155) 1
Assay type: cell-based
How it was run: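 Adult human keratinocytes in Epilife with HKGS minus hydrocortisone, treated with compound then stimulated with final 3 ng/ml HEK-derived human IL-17AA plus 10 ng/ml TNF-alpha for 68–72 h at 37 °C; TNF-alpha alone defines 100% inhibition. Secreted IL-8 by HTRF; relative IC50 and Emax from four-parameter fits.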

`Cc1n[nH]c(C)c1-c1ccc(NC(=O)[C@@H](NC(=O)C2(F)CC2)[C@@H]2CCc3ccc(-n4cnc(C(C)C)c4)cc32)cc1` [Example 360, N-[(1S)-2-[4-(3,5-dimethyl-1H-pyrazol-4-yl)anilino]-1-[(1R)-6-(4-isopropylimidazol-1-yl)indan-1-yl]-2-oxo-ethyl]-1-fluoro-cyclopropanecarboxamide] and `Cc1n[nH]c(C)c1-c1ccc(NC(=O)[C@@H](NC(=O)c2ccnn2C)[C@@H]2CCc3ccc(-n4cnc(C(C)C)c4)cc32)cc1` [Example 361, N-[(1S)-2-[4-(3,5-dimethyl-1H-pyrazol-4-yl)anilino]-1-[(1R)-6-(4-isopropylimidazol-1-yl)indan-1-yl]-2-oxo-ethyl]-2-methyl-pyrazole-3-carboxamide] fall in the same range of EC50: 100 to 1000 nM for the first, 100 to 1000 nM for the second.

Compared with `Cc1n[nH]c(C)c1-c1ccc(NC(=O)[C@@H](NC(=O)C2(F)CC2)[C@@H]2CCc3ccc(-c4ccnc(N5C[C@H]6C[C@@H]5CO6)c4)cc32)cc1` [Example 362, N-[(1S)-2-[4-(3,5-dimethyl-1H-pyrazol-4-yl)anilino]-1-[(1R)-6-[2-[(1R,4R)-2-oxa-5-azabicyclo[2.2.1]heptan-5-yl]-4-pyridyl]indan-1-yl]-2-oxo-ethyl]-1-fluoro-cyclopropanecarboxamide], `Cc1n[nH]c(C)c1-c1ccc(NC(=O)[C@@H](NC(=O)C2(F)CC2)[C@@H]2CCc3ccc(-c4cc(N5C[C@@H]6C[C@H]5CO6)ccn4)cc32)cc1` [Example 368, N-[(1S)-2-[4-(3,5-dimethyl-1H-pyrazol-4-yl)anilino]-1-[(1R)-6-[4-[(1S,4S)-2-oxa-5-azabicyclo[2.2.1]heptan-5-yl]-2-pyridyl]indan-1-yl]-2-oxo-ethyl]-1-fluoro-cyclopropanecarboxamide] is higher in EC50: under 100 nM for the first, 100 to 1000 nM for the second.

Compared with `Cc1n[nH]c(C)c1-c1ccc(NC(=O)[C@@H](NC(=O)C2(F)CC2)[C@@H]2CCc3ccc(-c4ccnc(N5CC6(COC6)C5)c4)cc32)cc1` [Example 364, N-[(1S)-2-[4-(3,5-dimethyl-1H-pyrazol-4-yl)anilino]-1-[(1R)-6-[2-(6-oxa-2-azaspiro[3.3]heptan-2-yl)-4-pyridyl]indan-1-yl]-2-oxo-ethyl]-1-fluoro-cyclopropanecarboxamide], `Cc1n[nH]c(C)c1-c1ccc(NC(=O)[C@@H](NC(=O)C2(F)CC2)[C@@H]2CCc3ccc(-c4cc(N5CC(F)(F)C5)ncn4)cc32)cc1` [Example 375, N-[(1S)-1-[(1R)-6-[6-(3,3-difluoroazetidin-1-yl)pyrimidin-4-yl]indan-1-yl]-2-[4-(3,5-dimethyl-1H-pyrazol-4-yl)anilino]-2-oxo-ethyl]-1-fluoro-cyclopropanecarboxamide] is higher in EC50: under 100 nM for the first, 100 to 1000 nM for the second.

First: Cc1cnn(C)c1-c1ccc(NC(=O)[C@@H](NC(=O)C2(F)CC2)[C@@H]2CCc3ccc(-c4cc(N5C[C@@H]6C[C@H]5CO6)ncn4)cc32)cc1 [Example 365, N-[(1S)-2-[4-(2,4-dimethylpyrazol-3-yl)anilino]-1-[(1R)-6-[6-[(1S,4S)-2-oxa-5-azabicyclo[2.2.1]heptan-5-yl]pyrimidin-4-yl]indan-1-yl]-2-oxo-ethyl]-1-fluoro-cyclopropanecarboxamide]
Second: Cc1cnn(C)c1-c1ccc(NC(=O)[C@@H](NC(=O)C2(F)CC2)[C@@H]2CCc3ccc(-c4ccnc(N5C[C@@H]6C[C@H]5CO6)c4)cc32)cc1O [Example 369, N-[(1S)-2-[4-(2,4-dimethylpyrazol-3-yl)-3-hydroxy-anilino]-1-[(1R)-6-[2-[(1S,4S)-2-oxa-5-azabicyclo[2.2.1]heptan-5-yl]-4-pyridyl]indan-1-yl]-2-oxo-ethyl]-1-fluoro-cyclopropanecarboxamide]
The EC50 of the first is higher: 100 to 1000 nM for the first, under 100 nM for the second. The second is the more potent here.

First: Cc1nc(-c2ccc3c(c2)[C@H]([C@H](NC(=O)C2(F)CC2)C(=O)Nc2ccc(-c4c(C)n[nH]c4C)cc2)CC3)cc(N2C[C@@H]3C[C@H]2CO3)n1 [Example 366, N-[(1S)-2-[4-(3,5-dimethyl-1H-pyrazol-4-yl)anilino]-1-[(1R)-6-[2-methyl-6-[(1S,4S)-2-oxa-5-azabicyclo[2.2.1]heptan-5-yl]pyrimidin-4-yl]indan-1-yl]-2-oxo-ethyl]-1-fluoro-cyclopropanecarboxamide]
Second: Cc1cc(-c2ccc3c(c2)[C@H]([C@H](NC(=O)C2(F)CC2)C(=O)Nc2ccc(-c4c(C)n[nH]c4C)cc2)CC3)nc(N2C[C@@H]3C[C@H]2CO3)n1 [Example 370, N-[(1S)-2-[4-(3,5-dimethyl-1H-pyrazol-4-yl)anilino]-1-[(1R)-6-[6-methyl-2-[(1S,4S)-2-oxa-5-azabicyclo[2.2.1]heptan-5-yl]pyrimidin-4-yl]indan-1-yl]-2-oxo-ethyl]-1-fluoro-cyclopropanecarboxamide]
The EC50 of the first is higher: 100 to 1000 nM for the first, under 100 nM for the second. The second is the more potent here.

`Cc1n[nH]c(C)c1-c1ccc(NC(=O)[C@@H](NC(=O)C2(F)CC2)[C@@H]2CCc3ccc(-c4ccnc(N5C[C@@H]6C[C@H]5CO6)n4)cc32)cc1` [Example 367, N-[(1S)-2-[4-(3,5-dimethyl-1H-pyrazol-4-yl)anilino]-1-[(1R)-6-[2-[(1S,4S)-2-oxa-5-azabicyclo[2.2.1]heptan-5-yl]pyrimidin-4-yl]indan-1-yl]-2-oxo-ethyl]-1-fluoro-cyclopropanecarboxamide] and `Cc1nn(C)c(C)c1-c1ccc(NC(=O)[C@@H](NC(=O)C2(F)CC2)[C@@H]2CCc3ccc(-c4ccnc(N5C[C@@H]6C[C@H]5CO6)c4)cc32)cc1` [Example 371, 1-fluoro-N-[(1S)-1-[(1R)-6-[2-[(1S,4S)-2-oxa-5-azabicyclo[2.2.1]heptan-5-yl]-4-pyridyl]indan-1-yl]-2-oxo-2-[4-(1,3,5-trimethylpyrazol-4-yl)anilino]ethyl] cyclopropanecarboxamide] cannot be ordered by EC50: under 100 nM for the first, under 100 nM for the second.

First: Cc1nn(C)cc1-c1ccc(NC(=O)[C@@H](NC(=O)C2(F)CC2)[C@@H]2CCc3ccc(-c4ccnc(N5C[C@@H]6C[C@H]5CO6)c4)cc32)cc1 [Example 372, N-[(1S)-2-[4-(1,3-dimethylpyrazol-4-yl)anilino]-1-[(1R)-6-[2-[(1S,4S)-2-oxa-5-azabicyclo[2.2.1]heptan-5-yl]-4-pyridyl]indan-1-yl]-2-oxo-ethyl]-1-fluoro-cyclopropanecarboxamide]
Second: Cc1n[nH]c(C)c1-c1ccc(NC(=O)[C@@H](NC(=O)C2(F)CC2)[C@@H]2CCc3ccc(-c4cccc(N5C[C@@H]6C[C@H]5CN6)c4)cc32)cc1 [Example 373, N-[(1S)-1-[(1R)-6-[3-[(1S,4S)-2,5-diazabicyclo[2.2.1]heptan-2-yl]phenyl]indan-1-yl]-2-[4-(3,5-dimethyl-1H-pyrazol-4-yl)anilino]-2-oxo-ethyl]-1-fluoro-cyclopropanecarboxamide]
The EC50 of the first is higher: 100 to 1000 nM for the first, under 100 nM for the second.

`Cc1n[nH]c(C)c1-c1ccc(NC(=O)[C@@H](NC(=O)OC2CC2)[C@@H]2CCc3ccc(-c4cc(N5C[C@@H]6C[C@H]5CO6)ncn4)cc32)cc1` [Example 374, cyclopropyl N-[(1S)-2-[4-(3,5-dimethyl-1H-pyrazol-4-yl)anilino]-1-[(1R)-6-[6-[(1S,4S)-2-oxa-5-azabicyclo[2.2.1]heptan-5-yl]pyrimidin-4-yl]indan-1-yl]-2-oxo-ethyl]carbamate] showed an EC50 of 100 to 1000 nM.
